{"source": "patent US20220249415A1", "about": "“COMPOSITION OF AZELAIC ACID HAVING ADIPOSE TRIGLYCERIDE HYDROLYSIS EFFECT” (Korea University Research and Business Foundation, priority 2018, published 2022)", "key": {"[1]": {"conditions": "reported results of a study; formed in the body; cited from earlier work"}, "Olfr544": {"target": "Olfr544 (Mus musculus, UniProt E9PX47)", "sequence (E9PX47 entry or part of it)": "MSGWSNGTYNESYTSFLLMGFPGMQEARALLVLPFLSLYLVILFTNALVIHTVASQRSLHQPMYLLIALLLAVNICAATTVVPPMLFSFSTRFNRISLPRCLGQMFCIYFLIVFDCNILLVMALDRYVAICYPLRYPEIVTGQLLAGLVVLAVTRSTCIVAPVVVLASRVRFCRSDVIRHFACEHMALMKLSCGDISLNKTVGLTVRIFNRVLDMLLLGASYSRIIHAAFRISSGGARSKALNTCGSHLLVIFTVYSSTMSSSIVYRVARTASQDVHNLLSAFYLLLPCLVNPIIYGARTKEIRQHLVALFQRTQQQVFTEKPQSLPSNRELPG", "assay": "CRE-luciferase reporter gene assay in Hana3A cell line transfected with Olfr544 expression vector", "format": "cell-based", "protocol": "In order to evaluate an activity of azelaic acid as an Olfr544 ligand in vitro assay, reporter gene assay was performed. Generally, a degree of gene expression of the olfactory receptor (OR) in tissue cells was low and a degree of protein expression also was low, such that research into the olfactory receptor was difficult. In order to solve this problem, a Hana3A cell line was supplied from a team led by professor Hiroaki Matsunami of Duke University and used in an experiment (Zhuang H., et al., Nat. Protocol, 3:1402-1413, 2008).\nThe reporter gene assay was performed as follows. First, after an Olfr544 expression vector and a cAMP response element (CRE)-Luciferase reporter vector were transfected into the Hana3A cell line, the transfected Hana3A cell line was treated with azelaic acid for 18 hours. Then, a luciferase activity was measured using a Firefly luciferase (FL) assay kit, and a dose response curve (DRC) was drawn based on the measured luciferase activity, thereby calculating a 50% effective concentration (EC50) corresponding to an index for determining an effect as a ligand (agonist)."}, "OR2K2": {"target": "T1, OR2K2 (Homo sapiens, UniProt Q8NGT1)", "T1 construct": "endogenous in cells; host or cells: HepG2", "T1 sequence (Q8NGT1 1-316)": "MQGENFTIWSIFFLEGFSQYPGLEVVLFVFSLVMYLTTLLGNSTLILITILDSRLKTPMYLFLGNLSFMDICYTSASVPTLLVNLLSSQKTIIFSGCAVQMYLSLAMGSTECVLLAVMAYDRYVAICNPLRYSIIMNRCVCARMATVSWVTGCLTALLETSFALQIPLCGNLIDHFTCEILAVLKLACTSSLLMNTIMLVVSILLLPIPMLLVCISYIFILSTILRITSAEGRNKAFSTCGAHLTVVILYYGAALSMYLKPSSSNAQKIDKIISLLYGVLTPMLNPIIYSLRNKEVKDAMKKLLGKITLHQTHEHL", "assay": "siRNA knock-down of OR2K2 in HepG2 cells, fatty acid oxidation-related gene expression", "format": "cell-based", "excerpt": "The gene expression of OR1E1, OR1K1, OR2K2, OR2S2, OR13C5, and OR51E2, corresponding to the top 6 receptors among 10 human olfactory receptors selected to be expressed in both adipose tissue and liver tissue while interacting with azelaic acid, was knocked down with siRNA in human-derived liver cell and adipocyte lines, namely HepG2 cells and hAMSC cells, respectively. Here, siRNAs that were used were OR1E2 siRNA (sc-93932), OR1K2 (sc-92810), OR2K2 (sc-92852), OR2S2 (sc-92505), OR13C5 (sc-92899), and OR51E2 (sc-76265), purchased from Santa Cruz Biotechnology Inc. (Dallas, Tx USA).\nAfter knock-down treatment, the cell lines were treated with azelaic acid, and triglyceride hydrolysis and fatty acid oxidation-related gene expression in HepG2 cells as a human-derived liver cell line and hAMSC cells as a human-derived adipocyte line were measured."}, "3T3-L1 adipocytes [2]": {"system": "3T3-L1 adipocytes", "assay": "IP-one assay (ELISA) in 3T3-L1 adipocytes", "format": "cell-based, mouse", "conditions": "50 μM azelaic acid, 18 hours", "protocol": "(§1) Therefore, changes in concentrations of cAMP, IP-one (metabolite of IP3), and calcium, which are second messengers by azelaic acid corresponding to the Olfr544 ligand, in 3T3-L1 adipocytes were measured. Since IP3 has low stability to thereby be easily decomposed to IP-one, an amount of intracellular IP-One (metabolite of IP3) was quantified instead of IP3.\nIP-one assay is a method of measuring a concentration of IP3 corresponding to a second messenger formed by phospholipolysis by phospholipase in a GPCR signal transduction process to measure an ability to regulate protein kinase C (PKC) signal transduction. In the present experiment, 1×10^4 3T3-L1 adipocytes were seeded in each well of the 96-well plate and differentiated, and then treated with 50 μM azelaic acid for 18 hours. Then, in order to measure IP3, the concentration of intracellular IP-one (metabolite of IP3, a surrogate marker) of which an error was small was measured using an IP-one ELISA Assay kit (Cisbio, France)."}, "3T3-L1 adipocytes [3]": {"system": "3T3-L1 adipocytes", "assay": "cAMP assay (ELISA kit) in 3T3-L1 adipocytes", "format": "cell-based, mouse", "conditions": "50 μM azelaic acid, 18 hours", "protocol": "as §1\ncAMP assay uses the principle to estimate a production amount of cAMP corresponding to a second messenger of a GPCR receptor activated by a ligand using a cAMP standard calibration curve. A 96-well plate included in a cAMP assay ELISA kit (Enzo Life science, New York, U.S.) was coated with a G×R IgG antibody, and after cAMP of a blue solution for obtaining the standard calibration curve was bound to alkaline phosphatase, the color of the blue solution was changed to yellow by a rabbit antibody. When alkaline phosphatase was activated by adding a pNpp substrate to a well bound to cAMP, a color change occurred, such that the concentration of cAMP may be measured at a wavelength of 405 nm using colorimetric analysis. In the present experiment, 1×10^4 3T3-L1 adipocytes were seeded in each well of the 96-well plate and differentiated, and then treated with 50 μM azelaic acid and 1 μM Foskolin corresponding to a positive control for 18 hours. Then, the concentration of cAMP was measured by the method described above."}, "3T3-L1 adipocytes [4]": {"system": "3T3-L1 adipocytes", "assay": "Western blot of phosphorylation of CREB and HSL in 3T3-L1 adipocytes", "format": "cell-based, mouse", "conditions": "azelaic acid 50 μM, 2 hours, vs control", "excerpt": "When the PKA protein activity is increased by azelaic acid, phosphorylation of target proteins of PKA is increased. Therefore, phosphorylation of cAMP-response element binding protein (CREB) and hormone-sensitive lipase (HSL) known as target proteins of PKA was confirmed by a western blot experiment. […] Primary antibodies used in the experiment were anti-phospho-CREB and anti-phospho-HSL antibodies (Santa Cruz, Calif., U.S.)."}, "HepG2 cells": {"system": "HepG2 cells", "assay": "Treatment of human liver tissue cell line HepG2 with azelaic acid", "format": "cell-based", "conditions": "azelaic acid 50 μM"}, "[5]": {"assay": "Dose evaluation experiment, oral administration, body weight control", "format": "in vivo", "conditions": "6 mg/kg of azelaic acid, 6 weeks", "protocol": "Azelaic acid was orally administered for 6 weeks, and the body weight control effects of three doses (6, 17, 20 mg/kg) were compared. The commercially available anti-obesity drugs Xenical and Panbesy were used as positive controls. […] Similar results were also obtained when a secondary experiment was performed to confirm the results."}}, "note": "pEC50: −log10 of the molar value."}
{"smiles": "O=C(O)CCCCCCCC(=O)O", "note": "[azelaic acid, nonanedioic acid]", "values": [{"measurement": "concentration of azelaic acid in a human body", "setting": "[1]", "value": "10 to 50", "unit": "µM"}, {"measurement": "pEC50", "setting": "Olfr544; Olfr544 + CRE-Luciferase reporter in Hana3A cells, 18 hours", "value": 4.53}, {"measurement": "Olfr544 activity", "setting": "Olfr544; concentration range of 1 to 1000 μM", "value": "concentration-dependently increased"}, {"measurement": "expression of fatty acid oxidation-related genes (PPARa, CTP1, Acox2) upon treatment with azelaic acid", "setting": "OR2K2; HepG2 cells during knock-down of OR2K2", "value": "did not change"}, {"measurement": "expression of fatty acid oxidation-related genes (PPARa, CTP1, Acox2), knocked-down group compared to control group", "setting": "OR2K2; HepG2 cells, OR2K2 knock-down, upon treatment with azelaic acid", "value": "statistically significantly decreased"}, {"measurement": "concentration of IP3 (IP-one)", "setting": "3T3-L1 adipocytes [2]", "value": "did not affect"}, {"measurement": "concentration of intracellular cAMP", "setting": "3T3-L1 adipocytes [3]", "value": "significantly increased"}, {"measurement": "phosphorylation of CREB", "setting": "3T3-L1 adipocytes [4]", "value": "rapidly increased"}, {"measurement": "phosphorylation of HSL", "setting": "3T3-L1 adipocytes [4]", "value": "rapidly increased"}, {"measurement": "triglyceride concentration", "setting": "HepG2 cells; HepG2 cells (lipid-loaded)", "value": "significantly decreased"}, {"measurement": "CREB phosphorylation (p-CREB)", "setting": "HepG2 cells; HepG2 cells", "value": "increased"}, {"measurement": "cAMP-PKA signaling pathway", "setting": "HepG2 cells; HepG2 cells", "value": "activated"}, {"measurement": "expression of fatty acid oxidation-related gene PPAR-α", "setting": "HepG2 cells; HepG2 cells", "value": "increased"}, {"measurement": "fatty acid oxidation (FA oxidation)", "setting": "HepG2 cells; HepG2 cells", "value": "increased"}, {"measurement": "body weight", "setting": "[5]", "value": "Significant body weight reduction efficacy"}]}
